From patent US20220128557A1, “[…] METHODS FOR REAL-TIME CELL MONITORING” (PHENOFAST LTD., priority 2019, published 2022)

Test system: E. coli
Test: Classical method of serial antibiotic dilution for MIC
Type: cell-based
Conditions: FIG. 7E
Experimental: FIGS. 7A-7E: (7A-7D) Scatter plots, with best fit lines of optical output measured by intensity shift as a function of time, performed on a series of 6 semi-stable sucrose coated grating units in parallel inoculated with E. coli cells and treated an hour later with (7A) 0 μg, (7B) 2.5 μg, (7C) 5.0 μg, and (7D) 7.5 μg of G418. (7E) A photograph of the classical serial dilution method for determining the MIC of G418 for treating E. coli.
By monitoring the diffraction over time, a range for minimum inhibitory concentration (MIC) was established (FIG. 7A-D). A control well received no antibiotic and normal logarithmic growth was observed (FIG. 7A). […] This would place the MIC at between 2.5 and 5.0 which was the same as the range (2.3-4.7 μg) found by the classical method of serial antibiotic dilution (FIG. 7E).

CN[C@@H]1[C@@H](O)[C@@H](O[C@@H]2[C@@H](O)[C@H](O[C@H]3O[C@H]([C@@H](C)O)[C@@H](O)[C@H](O)[C@H]3N)[C@@H](N)C[C@H]2N)OC[C@]1(C)O [G418]
MIC range found by classical serial antibiotic dilution: 2.3 to 4.7 µg
